Measured values published in ChEMBL document CHEMBL1146311, “Carbonic anhydrase activators: L-Adrenaline plugs the active site entrance of isozyme II, activating better isoforms I, IV, VA, VII, and XIV” (Bioorg Med Chem Lett, 2007).

Tests used:
[1] = biological target: Carbonic anhydrase 5A, mitochondrial (Homo sapiens) (UniProt P35218)
Description: Activation of human recombinant CA5A by CO2 hydration method

[2] = biological target: Carbonic anhydrase 1 (Homo sapiens) (UniProt P00915)
Description: Activation of human recombinant CA1 by CO2 hydration method

[3] = biological target: Carbonic anhydrase 2 (Homo sapiens) (UniProt P00918)
Description: Activation of human recombinant CA2 by CO2 hydration method

[4] = biological target: Carbonic anhydrase 7 (Homo sapiens) (UniProt P43166)
Chain of Carbonic anhydrase 7 (Homo sapiens) (P43166 whole entry): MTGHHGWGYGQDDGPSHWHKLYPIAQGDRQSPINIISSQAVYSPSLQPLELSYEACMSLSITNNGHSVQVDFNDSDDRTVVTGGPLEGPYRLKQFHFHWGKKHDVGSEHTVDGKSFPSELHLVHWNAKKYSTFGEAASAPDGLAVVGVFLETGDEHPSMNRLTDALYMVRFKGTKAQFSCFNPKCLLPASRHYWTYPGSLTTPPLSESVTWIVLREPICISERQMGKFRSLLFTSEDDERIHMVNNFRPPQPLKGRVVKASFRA
Description: Activation of human recombinant CA7 by CO2 hydration method

[5] = biological target: Carbonic anhydrase 4 (Homo sapiens) (UniProt P22748)
Chain of Carbonic anhydrase 4 (Homo sapiens) (P22748 whole entry): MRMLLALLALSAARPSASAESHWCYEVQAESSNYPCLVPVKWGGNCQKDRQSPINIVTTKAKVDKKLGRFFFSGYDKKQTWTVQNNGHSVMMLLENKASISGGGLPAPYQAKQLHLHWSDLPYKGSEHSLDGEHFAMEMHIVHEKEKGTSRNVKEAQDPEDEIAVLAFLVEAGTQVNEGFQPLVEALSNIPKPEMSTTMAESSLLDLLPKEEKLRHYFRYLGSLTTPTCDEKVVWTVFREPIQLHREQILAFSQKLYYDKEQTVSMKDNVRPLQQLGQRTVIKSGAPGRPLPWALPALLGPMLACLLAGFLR
Description: Activation of human recombinant CA4 by CO2 hydration method

[6] = biological target: Carbonic anhydrase 14 (Homo sapiens) (UniProt Q9ULX7)
Chain of Carbonic anhydrase 14 (Homo sapiens) (Q9ULX7 whole entry): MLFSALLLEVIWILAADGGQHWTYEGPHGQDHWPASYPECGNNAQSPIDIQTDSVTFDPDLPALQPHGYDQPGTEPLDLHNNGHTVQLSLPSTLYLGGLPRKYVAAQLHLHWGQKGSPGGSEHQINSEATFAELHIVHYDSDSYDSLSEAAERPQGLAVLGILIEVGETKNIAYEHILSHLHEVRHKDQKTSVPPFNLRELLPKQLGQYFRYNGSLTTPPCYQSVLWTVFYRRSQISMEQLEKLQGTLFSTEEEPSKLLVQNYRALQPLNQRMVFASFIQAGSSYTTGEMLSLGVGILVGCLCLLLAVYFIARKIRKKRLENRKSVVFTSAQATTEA
Description: Activation of human recombinant CA14 by CO2 hydration method

[7] = tested on: CNC[C@H](O)c1ccc(O)c(O)c1; conditions: Homo sapiens; 10 uM
Description: (§1) Activity of human recombinant CA1 at 10 uM by stopped-flow technique

NCCc1c[nH]cn1 [8] = conditions: Homo sapiens; 10 uM
Description: as §1

[9] = tested on: CNC[C@H](O)c1ccc(O)c(O)c1; conditions: Homo sapiens; 10 uM; remark: listed apart in the source
Description: (§2) Activity of human recombinant CA2 at 10 uM by stopped-flow technique

NCCc1c[nH]cn1 [10] = conditions: Homo sapiens; 10 uM; remark: listed apart in the source
Description: as §2

Chain of Carbonic anhydrase 1 (Homo sapiens), P00915 (P00915 whole entry): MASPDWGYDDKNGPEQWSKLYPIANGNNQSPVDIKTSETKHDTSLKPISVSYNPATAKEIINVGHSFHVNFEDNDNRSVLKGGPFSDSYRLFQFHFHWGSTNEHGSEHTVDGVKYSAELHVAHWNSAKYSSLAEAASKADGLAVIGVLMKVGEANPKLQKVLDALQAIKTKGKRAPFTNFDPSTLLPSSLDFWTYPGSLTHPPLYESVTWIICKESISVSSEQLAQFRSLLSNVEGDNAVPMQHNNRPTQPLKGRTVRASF
Chain of Carbonic anhydrase 5A, mitochondrial (Homo sapiens) (P35218 whole entry): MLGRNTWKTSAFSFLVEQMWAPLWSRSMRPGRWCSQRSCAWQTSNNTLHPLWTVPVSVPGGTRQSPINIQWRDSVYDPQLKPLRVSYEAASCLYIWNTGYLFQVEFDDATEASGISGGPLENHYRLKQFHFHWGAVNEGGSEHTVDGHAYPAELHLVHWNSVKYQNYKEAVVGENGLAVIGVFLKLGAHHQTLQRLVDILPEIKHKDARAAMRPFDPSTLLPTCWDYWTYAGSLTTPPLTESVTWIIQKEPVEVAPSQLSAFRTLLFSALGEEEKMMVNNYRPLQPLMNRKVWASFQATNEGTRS
Chain of Carbonic anhydrase 1 (Homo sapiens) (P00915 2-261 limits assumed): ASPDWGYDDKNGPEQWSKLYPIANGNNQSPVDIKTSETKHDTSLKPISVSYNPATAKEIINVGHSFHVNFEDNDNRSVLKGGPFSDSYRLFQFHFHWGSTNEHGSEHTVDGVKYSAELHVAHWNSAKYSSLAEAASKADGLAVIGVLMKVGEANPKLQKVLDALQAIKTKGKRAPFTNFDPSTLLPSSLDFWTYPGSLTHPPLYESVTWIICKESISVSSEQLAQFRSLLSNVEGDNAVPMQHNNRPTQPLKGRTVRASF

Ka [1] [µM]	Ka [2] [µM]	Ka [3] [µM]	Ka [4] [µM]	Ka [5] [µM]	Ka [6] [µM]	Compound	kcat [7]	kcat (NCCc1c[nH]cn1 [8])	kcat [9]	kcat (NCCc1c[nH]cn1 [10])
2.5	0.05	74	1.3	31	1.9	NCCc1c[nH]cn1				
						Carbonic anhydrase 1 (Homo sapiens), P00915	10.4 10^5/s	12.7 10^5/s		
						Carbonic anhydrase 2 (Homo sapiens) (from UniProt P00918)			1.7 10^6/s	2 10^6/s
63	0.09	96	60	45	36	CNC[C@H](O)c1ccc(O)c(O)c1				
